Source: patent US20230218654A1, “COMPOSITIONS AND METHODS FOR TREATING HYPERGLYCEMIA IN TYPE-2 DIABETES” (The Board of Regents of the university of Oklahoma, priority 2020, published 2023)
Entries after “also recorded” stand apart in the source; their conditions may differ.

Tests used:
[1] = test system: differentiated C2C12 myocytes; test: Glucose uptake assay; type: cell-based; conditions: 500 nM MLN4924 6 h, 100 nM insulin 1 hour
Procedure: Differentiated C2C12 myocytes were treated with MLN4924 (500 nM) and then stimulated with 100 nM insulin as indicated. Glucose uptake into the cells was measured. Glucose uptake into the cells was increased in the presence of MLN4924.Results are mean+/-SD of 5 replicates. “* ”, p less than 0.05, vs Vehicle-treated control.“#”, vs. insulin treated, p less than 0.05.
C2C12 myoblast cells were cultured in DMEM medium supplemented with 10% FBS. When cells grow to 60% confluency, differentiation into myocytes was induced by culturing cells in DMEM supplemented with 2% horse serum for 4-6 days. Cells were then serum starved overnight and treated with 500 nM MLN4924 or DMSO for 6 h and then stimulated with 100 nM insulin for 1 hour as indicated. Glucose uptake was measured with a Glucose uptake Glo^tm assay kit that was purchased from Promega (Madison, WI).

[2] = test system: primary human hepatocytes; test: Western blot of insulin signaling in primary human hepatocytes; type: cell-based
Procedure: Cells were pre-treated with increasing dose of MLN4924 for 1 h followed by 100 nM insulin stimulation for 4 h. Western blot was then performed to evaluate insulin signaling activation reflected by AKT phosphorylation.
Cells were treated with MLN4924 for 8 h. IRS1 band densitometry is shown as mean ± SEM of 8-9 independent batches. “* ”, vs. Vehicle, p less than 0.05.
Cells were treated with MLN4924 for 8 h. IRS2 band densitometry is shown as mean ± SEM of 8-9 independent batches. “* ”, vs. Vehicle, p less than 0.05.
FIG. 18B is a Western blot analysis showing that MLN4924 enhances hepatocyte insulin responsiveness (signaling) by delaying feedback IRS degradation. Primary human hepatocytes cells were serum starved for 16 h. Cells were then pre-treated with MLN4924 for 1 h followed by insulin stimulation for 4 h.
IRS protein in IRS 1 and IRS2 band intensity was normalized to Actin band intensity. n=8-9. “*”, p<0.05 (unpaired t-test), vs. Vehicle.
AML12 cells were a generous gift from Dr. Yanqiao Zhang (Northeast Ohio Medical University). AML12 cells were cultured in DMEM medium supplemented with a mixture of insulin-transferrin-selenium (#41400-045, ThermoFisher, Waltham, MA). For experiments, cells were cultured in serum free medium overnight before various treatments were initiated. The siGENOME SMARTpool siRNA and siControl were purchased from Dharmacon, Inc. (Lafayette, CO). […]

[3] = test system: hepatic CRL (cullin) neddylation and hepatic insulin signaling; test: Western blot of liver lysates after acute MLN4924 injection; type: in vivo; conditions: chow-fed mice, 6 h fast; for hepatic CRL (cullin) neddylation: 60 mg/kg at 5 pm day 1 and 9 am day 2 (IP or SQ)
Procedure: A. Western blot of liver lysates. Chow-fed male C56BL/6J mice were injected with 60 mg/kg MLN4924 or Vehicle (10% 2HO-β-cyclodextrin) at 5 pm on day 1 and 9 am on day 2, and sacrificed at 3 pm after 6 h fast. Upper arrow: Neddylated Cul3; Lower arrow: de-neddylated Cul3. Veh=vehicle; IP=intraperitoneal; SQ=subcutaneous.
FIG. 12A is a Western blot showing that MLN4924 inhibits liver cullin neddylation and increases IRS protein abundance and insulin signaling activation. Chow-fed male C56BL/6J mice were subcutaneously (SQ) injected 60 mg/kg MLN4924 or Veh (10 % 2HO-β-cyclodextrin) at 5 pm on day 1 and 9 am on day 2. Mice were fasted from 9 am to 3 pm on day 2 and sacrificed. Upper and lower arrows indicate neddylated cullin1 and cullin3 bands, respectively.
MLN4924 and TAS4464 were purchased from MedChemExpress (MCE, Monmouth Junction, NJ). For cell treatment, MLN4924 and TAS4464 were dissolved in DMSO. Cells were serum starved overnight and then treated with MLN4924, TAS4464 and/or insulin as indicated. For injection in mice, MLN4924 and TAS4464 were first dissolved in DMSO, which was further suspended in 10% (2-hydroxypropyl)-β-cyclodextrin (Sigma, St. Louis, MO). The final solution contains 1% DMSO. The subcutaneous injection volume is 200 µl/mouse.
Protein lysates were prepared in RIPA buffer containing 1% SDS and protease inhibitors on ice for 1 h followed by brief sonication. After centrifugation, supernatant was used for SDS-PAGE and immunoblotting.
WT male C57BL/6J mice were purchased from the Jackson Lab (Bar Harbor, ME). Western diet (TD. 88137, Envigo Inc. Indianapolis, IN) contains 42% fat calories and 0.2% cholesterol. Mice were housed in micro-isolator cages with corn cob bedding under 7 am - 7 pm light cycle and 7 pm -7 am dark cycle. MLN4924 was prepared in 10% 2-hydroxypropyl-b-cyclodextrin to a final concentration of 3 mg/ml. All mice were fasted for 6 h from 9 am to 3 pm before euthanasia. All animals received humane care according to the criteria outlined in the “Guide for the Care and Use of Laboratory Animals.” All animal protocols were approved by the Institutional Animal Care and Use Committee at the University of Kansas Medical Center and the University of Oklahoma Health Sciences Center.
Human normal livers (less than 5% steatosis) and histologically confirmed NASH livers were obtained from either the University of Kansas Liver Center or the Liver Tissue Cell Distribution System (LTCDS) at the University of Minnesota. Human and mouse tissue samples were homogenized in 1XRIPA buffer containing 1% SDS and protease inhibitors. After incubation on ice for 1 hour, the samples were centrifugation and supernatant was transferred to a new tube. The protein lysate was mixed with equal volume of 2X laemmli buffer and incubated at 95° C. for 5 minutes and used for SDS-PAGE and immunoblotting. ImageJ software (NIH) was used to determine band intensity.
To further explore the hepatic insulin sensitizing effect of neddylation inhibition in vivo, we administered MLN4924 to chow-fed mice twice via subcutaneous (SQ) injection (5 pm on day 1 and 9 am on day 2) and studied the acute effect of MLN4924. The dose of 60 mg/kg is in line with published literature. […] In addition to liver, skeletal muscle is another organ that quantitatively contribute to plasma glucose homeostasis.

[4] = test system: high fat diet-fed mice; conditions: i.p. injection; cited from earlier work

NS(=O)(=O)OC[C@@H]1C[C@@H](n2ccc3c(N[C@H]4CCc5ccccc54)ncnc32)C[C@@H]1O [MLN4924, ((1S,2S,4R)-4-(4-((1S)-2,3-dihydro-1H-inden-1-ylamino)-7H-pyrrolo[2,3-d]pyrimidin-7-yl)-2-hydroxycyclopentyl) methyl sulfamate]
glucose uptake [1]: increased glucose uptake
IRS1 and IRS2 protein abundance ([2]; MLN4924 (500 nM) 8 h, independent batches): consistently increased IRS1 and IRS2 protein abundance; also recorded: increased IRS protein abundance
insulin activation of AKT ([2]; MLN4924 pre-treatment 1 h, 100 nM insulin 4 h): enhanced insulin activation of AKT; also recorded: increased IRS protein abundance and insulin-stimulated AKT activation
hepatic CRL (cullin) neddylation ([3]; 60 mg/kg): effectively reduced hepatic CRL neddylation
hepatic CRL (cullin) neddylation ([3]; listed as MLN4924, 60 mg/kg): effectively reduced hepatic cullin neddylation
hepatic Y612 phosphorylated IRS1 ([3]; 60 mg/kg twice): increased Y612 phosphorylated IRS1
hepatic IRS1 and IRS2 protein ([3]; 60 mg/kg twice, 60 mg/kg): rapidly increased hepatic IRS1 and IRS2; also recorded: increased hepatic IRS proteins
hepatic phosphorylated AKT ([3]; 60 mg/kg twice, 60 mg/kg): higher phosphorylated AKT; also recorded: increased hepatic IRS proteins and AKT phosphorylation
obesity [4]: significantly reduces obesity
